Assay results from patent US20070093520A1, “Method of treatment of diarrhea-predominant irritable bowel syndrome in a subject” (priority 2005, published 2007).

System: diarrhea-predominant IBS subjects
Assay type: in vivo, human
Procedure: The study was performed in approximately 150 study centers. Approximately 1600 eligible subjects were to be given cilansetron 2 mg TID. At Visit 1, pre-treatment assessments were conducted. […] Subjects were to return to the study site one month later for Visit 3 (Day 31) for their first interim assessment. […] All subjects who discontinued from the study were to have the same post-study assessments required at Visit 7 performed at their early termination visit. […]
Stool specimens were analyzed at every visit for occult blood. An independent GERB had been established to provide advice on GI AEs during the course of the study.
Adverse events were assessed at Baseline, at each clinic visit, and at the end of the study (Month 12 or the early termination visit). All AEs, which occurred during the study were followed up in accordance with good medical practice until resolved or judged no longer clinically significant, or if a condition was chronic, until fully characterized. Adverse events could occur in the specified follow-up period and, regardless of the interval since the last administration of the study medication, were treated in the same manner as an AE which occurred during the treatment with study medication. Each AE was evaluated for duration, severity, seriousness, and causal relationship to the investigational drug. The action taken and the outcome were also recorded.
Specifically, subjects who were lost to follow-up and had no post-Baseline contact with the site were excluded from the Safety population. The subjects who discontinued from the study due to lost to follow-up were identified based on the information collected on the study termination CRF page.
After the pretreatment assessment at Visit 1 (Days […] to −3), subjects were to return to the study site for a Baseline assessment and start the treatment at Visit 2 (Day 1).
For the by time-interval analyses of disposition, prevalence of AEs, and of markedly abnormal and predefined changes in laboratory values, vital signs, and ECGs, the following interval windows were used:
Adverse events that were already present prior to the first dose of cilansetron study medication but increased in severity afterwards were considered as treatment-emergent.
The 5% cutoff point was based on the incidence within higher level terms.
Subjects were counted at most once for each primary system organ class and preferred term. Serious AEs that resolved prior to receiving study medication or occurred more than 30 days after the last dose of study medication were not included in the incidence tables. A listing of all SAEs is presented; SAEs with onset prior to receiving study medication or more than 30 days after discontinuation of study medication were flagged. The listing presents lower level term and preferred term of the SAE, severity, action taken, outcome, and relationship of the SAE, start and stop date of the SAE, study day of onset of the SAE, age, race, and sex.

[1] = 2 mg, Safety Population, 3008, system organ class
[2] = 2 mg, Safety Population, 3008, under Blood and Lymphatic System Disorders
[3] = 2 mg, Safety Population, 3008, under Congenital, Familial and Genetic Disorders
[4] = 2 mg, Safety Population, 3008, under Ear and Labyrinth Disorders
[5] = 2 mg, Safety Population, 3008, under Endocrine Disorders
[6] = 2 mg, Safety Population, 3008, under Eye Disorders
[7] = 2 mg, Safety Population, 3008, under Hepatobiliary Disorders
[8] = 2 mg, Safety Population, 3008, under Immune System Disorders
[9] = 2 mg, Safety Population, 3008, under Neoplasms Benign, Malignant and Unspecified

Cc1nccn1C[C@H]1CCc2c(c3cccc4c3n2CCC4)C1=O [cilansetron, (R)-(−)-4,5,6,8,9,10-hexahydro-10-[(2-methyl-1H-imidazol-1-yl)methyl]-11H-pyrido-[3,2,1-jk]-carbazol-11-one]
TEAE incidence: Influenza Viral Infections: 51 (4%) n (%)
TEAE incidence: Scrotal Disorders NEC* (2 mg, Safety Population, 3008): 1 (<1%) n (%)
TEAE incidence: Scrotal Swelling* (2 mg, Safety Population, 3008): 1 (<1%) n (%)
TEAE incidence: Vaginal Haemorrhage* (2 mg, Safety Population, 3008): 1 (<1%) n (%)
TEAE incidence: Vulvovaginal Disorders NEC* (2 mg, Safety Population, 3008): 1 (<1%) n (%)
TEAE incidence: Blood and Lymphatic System Disorders [1]: 13 (<1%) n (%)
TEAE incidence: Congenital, Familial and Genetic Disorders [1]: 3 (<1%) n (%)
TEAE incidence: Ear and Labyrinth Disorders [1]: 22 (2%) n (%)
TEAE incidence: Endocrine Disorders [1]: 7 (<1%) n (%)
TEAE incidence: Eye Disorders [1]: 18 (1%) n (%)
TEAE incidence: Hepatobiliary Disorders [1]: 13 (<1%) n (%)
TEAE incidence: Immune System Disorders [1]: 23 (2%) n (%)
TEAE incidence: Neoplasms Benign, Malignant and Unspecified (Incl Cysts and Polyps) [1]: 17 (1%) n (%)
TEAE incidence: Pregnancy, Puerperium and Perinatal Conditions [1]: 2 (<1%) n (%)
TEAE incidence: Social Circumstances [1]: 3 (<1%) n (%)
TEAE incidence: Surgical and Medical Procedures [1]: 2 (<1%) n (%)
TEAE incidence: Vascular Disorders [1]: 32 (2%) n (%)
TEAE incidence: Anaemia Deficiencies [2]: 1 (<1%) n (%)
TEAE incidence: Anaemia NOS [2]: 5 (<1%) n (%)
TEAE incidence: Anaemia Vitamin B12 Deficiency [2]: 1 (<1%) n (%)
TEAE incidence: Anaemias NEC [2]: 7 (<1%) n (%)
TEAE incidence: Anisocytosis [2]: 1 (<1%) n (%)
TEAE incidence: Eosinophilia [2]: 2 (<1%) n (%)
TEAE incidence: Hypochromic Anaemia [2]: 1 (<1%) n (%)
TEAE incidence: Leukocytoses NEC [2]: 4 (<1%) n (%)
TEAE incidence: Leukocytosis [2]: 2 (<1%) n (%)
TEAE incidence: Leukopenia NOS [2]: 2 (<1%) n (%)
TEAE incidence: Leukopenias NEC [2]: 2 (<1%) n (%)
TEAE incidence: Neutropenia [2]: 1 (<1%) n (%)
TEAE incidence: Neutropenias [2]: 1 (<1%) n (%)
TEAE incidence: Neutrophilia [2]: 2 (<1%) n (%)
TEAE incidence: Normochromic Normocytic Anaemia [2]: 1 (<1%) n (%)
TEAE incidence: Poikilocytosis [2]: 1 (<1%) n (%)
TEAE incidence: Red Blood Cell Abnormal Findings NEC [2]: 1 (<1%) n (%)
TEAE incidence: Secondary Thrombocythaemias [2]: 1 (<1%) n (%)
TEAE incidence: Thrombocythaemia [2]: 1 (<1%) n (%)
TEAE incidence: Congenital Claw Toe [3]: 1 (<1%) n (%)
TEAE incidence: Musculoskeletal and Connective Tissue Disorders of Limbs Congenital [3]: 1 (<1%) n (%)
TEAE incidence: Pigmented Naevus [3]: 2 (<1%) n (%)
TEAE incidence: Skin and Subcutaneous Tissue Disorders Congenital NEC [3]: 2 (<1%) n (%)
TEAE incidence: Ear Disorders NEC [4]: 3 (<1%) n (%)
TEAE incidence: Ear Pain [4]: 3 (<1%) n (%)
TEAE incidence: Hyperacusia [4]: 1 (<1%) n (%)
TEAE incidence: Hyperacusis [4]: 1 (<1%) n (%)
TEAE incidence: Inner Ear Disorder NOS [4]: 1 (<1%) n (%)
TEAE incidence: Inner Ear Disorders NEC [4]: 1 (<1%) n (%)
TEAE incidence: Inner Ear Signs and Symptoms [4]: 18 (1%) n (%)
TEAE incidence: Tinnitus [4]: 8 (<1%) n (%)
TEAE incidence: Vertigo [4]: 10 (<1%) n (%)
TEAE incidence: Vertigo Positional [4]: 1 (<1%) n (%)
TEAE incidence: Acquired Hypothyroidism [5]: 3 (<1%) n (%)
TEAE incidence: Acute and Chronic Thyroiditis [5]: 1 (<1%) n (%)
TEAE incidence: Goitre [5]: 2 (<1%) n (%)
TEAE incidence: Thyroid Disorders NEC [5]: 2 (<1%) n (%)
TEAE incidence: Thyroid Hyperfunction Disorders [5]: 2 (<1%) n (%)
TEAE incidence: Thyroid Hypofunction Disorders [5]: 3 (<1%) n (%)
TEAE incidence: Thyroid Neoplasms [5]: 1 (<1%) n (%)
TEAE incidence: Thyroid Nodule [5]: 1 (<1%) n (%)
TEAE incidence: Thyroiditis NOS [5]: 1 (<1%) n (%)
TEAE incidence: Thyrotoxicosis [5]: 2 (<1%) n (%)
TEAE incidence: Amaurosis Fugax [6]: 1 (<1%) n (%)
TEAE incidence: Blindness (Excl Colour Blindness) [6]: 1 (<1%) n (%)
TEAE incidence: Cataract Unilateral [6]: 1 (<1%) n (%)
TEAE incidence: Cataracts (Excl Congenital) [6]: 1 (<1%) n (%)
TEAE incidence: Conjunctival Haemorrhage [6]: 1 (<1%) n (%)
TEAE incidence: Conjunctival and Corneal Bleeding and Vascular Disorders [6]: 1 (<1%) n (%)
TEAE incidence: Conjunctivitis [6]: 1 (<1%) n (%)
TEAE incidence: Dry Eye NOS [6]: 1 (<1%) n (%)
TEAE incidence: Eye Irritation [6]: 1 (<1%) n (%)
TEAE incidence: Eye Pain [6]: 2 (<1%) n (%)
TEAE incidence: Eyelid Oedema [6]: 2 (<1%) n (%)
TEAE incidence: Glaucoma NOS [6]: 1 (<1%) n (%)
TEAE incidence: Glaucomas (Excl Congenital) [6]: 1 (<1%) n (%)
TEAE incidence: Lacrimal Disorders [6]: 1 (<1%) n (%)
TEAE incidence: Ocular Disorders NEC [6]: 2 (<1%) n (%)
TEAE incidence: Ocular Sensation Disorders [6]: 1 (<1%) n (%)
TEAE incidence: Partial Vision Loss [6]: 2 (<1%) n (%)
TEAE incidence: Photophobia [6]: 1 (<1%) n (%)
TEAE incidence: Retinal Bleeding and Vascular Disorders (Excl Retinopathy) [6]: 1 (<1%) n (%)
TEAE incidence: Retinal Detachment [6]: 1 (<1%) n (%)
TEAE incidence: Retinal Structural Change, Deposit and Degeneration [6]: 1 (<1%) n (%)
TEAE incidence: Retinal Vascular Disorder NOS [6]: 1 (<1%) n (%)
TEAE incidence: Retinitis NOS [6]: 1 (<1%) n (%)
TEAE incidence: Vision Abnormal NOS Exacerbated [6]: 1 (<1%) n (%)
TEAE incidence: Vision Blurred [6]: 1 (<1%) n (%)
TEAE incidence: Visual Disorders NEC [6]: 3 (<1%) n (%)
TEAE incidence: Visual Disturbance NOS [6]: 3 (<1%) n (%)
TEAE incidence: Biliary Dyskinesia [7]: 1 (<1%) n (%)
TEAE incidence: Cholecystitis NOS [7]: 2 (<1%) n (%)
TEAE incidence: Cholecystitis and Cholelithiasis [7]: 3 (<1%) n (%)
TEAE incidence: Cholelithiasis [7]: 1 (<1%) n (%)
TEAE incidence: Cholestasis and Jaundice [7]: 1 (<1%) n (%)
TEAE incidence: Gallbladder Disorders NEC [7]: 1 (<1%) n (%)
TEAE incidence: Hepatic Cyst NOS [7]: 1 (<1%) n (%)
TEAE incidence: Hepatic Disorder NOS [7]: 2 (<1%) n (%)
TEAE incidence: Hepatic and Hepatobiliary Disorders NEC [7]: 2 (<1%) n (%)
TEAE incidence: Hepatitis NOS [7]: 3 (<1%) n (%)
TEAE incidence: Hepatobiliary Neoplasms Benign [7]: 1 (<1%) n (%)
TEAE incidence: Hepatocellular Damage and Hepatitis NEC [7]: 5 (<1%) n (%)
TEAE incidence: Jaundice Cholestatic [7]: 1 (<1%) n (%)
TEAE incidence: Liver Fatty [7]: 2 (<1%) n (%)
TEAE incidence: Allergic Conditions NEC [8]: 8 (<1%) n (%)
TEAE incidence: Allergies to Foods, Food Additives, Drugs and Other Chemicals [8]: 3 (<1%) n (%)
TEAE incidence: Atopic Disorders [8]: 12 (<1%) n (%)
TEAE incidence: Drug Hypersensitivity [8]: 3 (<1%) n (%)
TEAE incidence: Hypersensitivity NOS [8]: 7 (<1%) n (%)
TEAE incidence: Seasonal Allergy [8]: 12 (<1%) n (%)
TEAE incidence: Benign Ureteric Neoplasm NOS [9]: 1 (<1%) n (%)
TEAE incidence: Bladder Neoplasm NOS [9]: 1 (<1%) n (%)
TEAE incidence: Breast Cancer NOS* [9]: 1 (<1%) n (%)
TEAE incidence: Breast and Nipple Neoplasms Malignant* [9]: 1 (<1%) n (%)
TEAE incidence: Cartilage Neoplasms Benign [9]: 1 (<1%) n (%)
TEAE incidence: Enchondromatosis [9]: 1 (<1%) n (%)
